Data: PMC3433420 (PLoS ONE, 2012)
Residues, ends and D or L forms follow the SMILES beside them.

Legend:
Test in all cases: FP saturation binding assay
VAV2 SH2 domain = VAV2 SH2 domain (Homo sapiens, UniProt P52735)
PLCG1-N SH2 domain = PLCG1-N SH2 domain (Homo sapiens, UniProt P19174)
SH2D2A SH2 domain = SH2D2A SH2 domain (Homo sapiens, UniProt Q9NP31)
PIK3R2-N SH2 domain = PIK3R2-N SH2 domain (Homo sapiens, UniProt O00459)
LCP2 SH2 domain = LCP2 SH2 domain (Homo sapiens, UniProt Q13094)
BLK SH2 domain = BLK SH2 domain (Homo sapiens, UniProt P51451)
Chain of BLK SH2 domain (P51451 124-220 limits assumed): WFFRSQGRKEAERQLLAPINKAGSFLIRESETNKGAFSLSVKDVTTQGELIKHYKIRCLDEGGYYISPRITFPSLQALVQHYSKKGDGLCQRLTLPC

SHC1 SH2 domain = SHC1 SH2 domain (Homo sapiens, UniProt P29353)
Chain of SHC1 SH2 domain (P29353 488-579 limits assumed): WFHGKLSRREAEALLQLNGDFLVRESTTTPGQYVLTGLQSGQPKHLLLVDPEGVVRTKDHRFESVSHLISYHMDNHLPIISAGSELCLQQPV

STAP1 SH2 domain = STAP1 SH2 domain (Homo sapiens, UniProt Q9ULZ2)
Chain of STAP1 SH2 domain (Q9ULZ2 177-280 limits assumed): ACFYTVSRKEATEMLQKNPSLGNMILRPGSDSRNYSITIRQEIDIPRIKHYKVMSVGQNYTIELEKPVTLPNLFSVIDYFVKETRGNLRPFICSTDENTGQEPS

HSH2D SH2 domain = target: T1, HSH2D SH2 domain (Homo sapiens, UniProt Q96JZ2)
T1 sequence (Q96JZ2 34-125 limits assumed): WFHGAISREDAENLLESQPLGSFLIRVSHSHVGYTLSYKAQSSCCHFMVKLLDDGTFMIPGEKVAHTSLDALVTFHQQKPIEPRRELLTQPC

GRB2 SH2 domain = GRB2 SH2 domain (Homo sapiens, UniProt P62993)
Chain of GRB2 SH2 domain (P62993 60-152 limits assumed): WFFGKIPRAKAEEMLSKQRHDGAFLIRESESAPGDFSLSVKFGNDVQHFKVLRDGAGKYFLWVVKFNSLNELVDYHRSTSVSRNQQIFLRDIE

Chain of LCP2 SH2 domain (Q13094 422-530 limits assumed): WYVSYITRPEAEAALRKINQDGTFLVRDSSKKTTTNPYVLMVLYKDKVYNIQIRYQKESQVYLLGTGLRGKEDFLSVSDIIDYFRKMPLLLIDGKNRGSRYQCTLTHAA
Chain of PLCG1-N SH2 domain (P19174 550-657 limits assumed): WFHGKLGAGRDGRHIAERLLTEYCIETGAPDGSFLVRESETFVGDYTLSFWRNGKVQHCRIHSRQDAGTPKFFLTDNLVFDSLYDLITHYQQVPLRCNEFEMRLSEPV
Chain of PIK3R2-N SH2 domain (O00459 330-425 limits assumed): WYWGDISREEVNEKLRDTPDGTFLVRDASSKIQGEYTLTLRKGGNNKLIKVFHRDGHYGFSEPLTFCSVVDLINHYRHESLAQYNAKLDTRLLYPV
Chain of VAV2 SH2 domain (P52735 673-767 limits assumed): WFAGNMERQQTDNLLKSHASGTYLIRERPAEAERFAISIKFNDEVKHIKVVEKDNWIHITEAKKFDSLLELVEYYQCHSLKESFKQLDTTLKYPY
Chain of SH2D2A SH2 domain (Q9NP31 95-186 limits assumed): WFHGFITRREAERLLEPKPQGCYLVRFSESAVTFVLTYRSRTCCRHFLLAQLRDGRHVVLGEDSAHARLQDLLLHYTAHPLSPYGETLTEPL

## CC(C)C[C@H](NC(=O)[C@H](Cc1ccc(OP(=O)(O)O)cc1)NC(=O)[C@H](CCC(=O)O)NC(=O)[C@H](CCC(=O)O)NC(=O)[C@H](C)NC(=O)[C@@H](N)CC(=O)O)C(=O)N[C@H](C(=O)N1CCC[C@H]1C(=O)N[C@@H](CCC(N)=O)C(=O)N[C@@H](CCC(N)=O)C(=O)NCC(=O)N[C@@H](Cc1ccccc1)C(=O)N[C@@H](CC(=O)O)C(=O)O)C(C)C [ErbB2 1023 13-mer] (HELM PEPTIDE1{D.A.E.E.[O=C([C@H](Cc1ccc(OP(=O)(O)O)cc1)N[*:1])[*:2]].L.V.P.Q.Q.G.F.D}$$$$V2.0)
VAV2 SH2 domain
  Kd: 9.9 µM

## CC(C)[C@H](NC(=O)[C@H](CC(=O)O)NC(=O)[C@@H]1CCCN1C(=O)[C@H](CCC(N)=O)NC(=O)[C@H](CC(N)=O)NC(=O)[C@@H](NC(=O)[C@H](Cc1ccc(OP(=O)(O)O)cc1)NC(=O)[C@H](CCC(=O)O)NC(=O)[C@@H]1CCCN1C(=O)[C@H](CCC(N)=O)NC(=O)[C@@H]1CCCN1)C(C)C)C(=O)N[C@@H](CCCNC(=N)N)C(=O)N[C@@H](CC(=O)O)C(=O)O [ErbB2 1139 13-mer] (HELM PEPTIDE1{P.Q.P.E.[O=C([C@H](Cc1ccc(OP(=O)(O)O)cc1)N[*:1])[*:2]].V.N.Q.P.D.V.R.D}$$$$V2.0)
PLCG1-N SH2 domain
  Kd: 11.8 µM
SH2D2A SH2 domain
  Kd: 4.8 µM
PIK3R2-N SH2 domain
  Kd: 2.2 µM

## CC(C)C[C@H](NC(=O)[C@H](CC(N)=O)NC(=O)[C@@H](N)CC(=O)O)C(=O)N[C@@H](Cc1ccc(O)cc1)C(=O)N[C@@H](Cc1ccc(OP(=O)(O)O)cc1)C(=O)N[C@@H](Cc1c[nH]c2ccccc12)C(=O)N[C@@H](CC(=O)O)C(=O)N[C@@H](CCC(N)=O)C(=O)N[C@@H](CC(=O)O)C(=O)N1CCC[C@H]1C(=O)N1CCC[C@H]1C(=O)N[C@@H](CCC(=O)O)C(=O)N[C@@H](CC(=O)O)C(=O)O [ErbB2 1222 13-mer] (HELM PEPTIDE1{D.N.L.Y.[O=C([C@H](Cc1ccc(OP(=O)(O)O)cc1)N[*:1])[*:2]].W.D.Q.D.P.P.E.D}$$$$V2.0)
LCP2 SH2 domain
  Kd: 11.7 µM
BLK SH2 domain
  Kd: 10.9 µM

## CC(C)C[C@H](NC(=O)[C@H](Cc1ccc(OP(=O)(O)O)cc1)NC(=O)[C@H](CC(C)C)NC(=O)[C@@H]1CCCN1C(=O)[C@H](CCC(=O)O)NC(=O)[C@H](CC(N)=O)NC(=O)[C@@H](NC(=O)[C@H](Cc1ccc(O)cc1)NC(=O)[C@H](CCC(=O)O)NC(=O)[C@H](CC(=O)O)NC(=O)[C@@H](N)CCC(=O)O)C(C)C)C(=O)N[C@@H](CC(N)=O)C(=O)N[C@H](C(=O)N[C@@H](Cc1ccccc1)C(=O)N[C@@H](C)C(=O)N[C@@H](CC(N)=O)C(=O)N[C@H](C(=O)N[C@@H](CC(=O)O)C(=O)O)[C@@H](C)O)[C@@H](C)O [ErbB4 1208 18-mer] (HELM PEPTIDE1{E.D.E.Y.V.N.E.P.L.[O=C([C@H](Cc1ccc(OP(=O)(O)O)cc1)N[*:1])[*:2]].L.N.T.F.A.N.T.D}$$$$V2.0)
SHC1 SH2 domain
  Kd: 11 µM
STAP1 SH2 domain
  Kd: 10.1 µM
HSH2D SH2 domain
  Kd: 1.14 µM
GRB2 SH2 domain
  Kd: 2.46 µM
